In PubChem BioAssay AID504356 (Broad Institute, 2011):
Calls of active or inactive are those of the source.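 How the source made its calls: active means curve reaching 10% of positive control caspase signal at or below the top valid tested dose; inactive means opposite-direction activity, or no crossing across tested range.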

Tests used:
[1] = caspase-Glo signal rise in Trichostatin-treated MEWO cells – cell-based, Trichostatin A primed, luminescence, set 2, orthogonal assay for A1 inhibitor project, dose response (AID 504356); conditions: MEWO A1-expressing, TSA primed, caspase-Glo luminescence, 3 h, active compounds read high
[2] = test system: MEWO A1-expressing, TSA primed, caspase-Glo luminescence, 3 h; assay: as above

## Cn1c(=O)c([N+](=O)[O-])c(Nc2ccc(Cl)cc2)c2ccccc21
[1]; at 0.235 µM
  max caspase activation: 3.04% (inactive)

## Cn1c(=O)c([N+](=O)[O-])c(Cl)c2ccccc21
[1]; at 8 µM
  max caspase activation: 9.18% (inactive)

## O=c1oc2ccccc2c(Sc2ccccc2)c1[N+](=O)[O-]
[1]; at 30 µM
  max caspase activation: -5.41% (inactive)

## C/C1=C/C(=O)O[C@@H]2C[C@@H](CC[C@H](C)/C=C\CC1)O[C@@](O)(C1CSC(=O)N1)C2 (stereo partly specified)
[1]; at 30 µM
  max caspase activation: 2.64% (inactive)

## O=C(Oc1cccc(/C=N/Nc2nc(Nc3ccccc3)nc(N3CCOCC3)n2)c1)c1ccco1
[1]; at 3.8 µM
  max caspase activation: 2.46% (inactive)

## Cn1c(=O)c([N+](=O)[O-])c(Oc2ccccc2)c2ccccc21
[1]; at 30 µM
  max caspase activation: 2.08% (inactive)

## Cc1ccc(Sc2c([N+](=O)[O-])c(=O)n(C)c3ccccc23)cc1
[2]
  AC10: > 30 µM (inactive)

## Cc1ccc(Nc2c([N+](=O)[O-])c(=O)n(C)c3ccccc23)cc1
[1]; at 0.5 µM
  max caspase activation: 1.48% (inactive)

## CCOC(=O)N1CCN(c2c([N+](=O)[O-])c(=O)n(C)c3ccccc23)CC1
[1]; at 8 µM
  max caspase activation: 0.764% (inactive)

## Cc1ccc(Nc2c([N+](=O)[O-])c(=O)oc3ccccc23)cc1
[1]; at 16 µM
  max caspase activation: 1.85% (inactive)

## CCOCCCNc1c([N+](=O)[O-])c(=O)n(C)c2ccccc12
[1]; at 8 µM
  max caspase activation: 1.97% (inactive)

## O=c1oc2ccccc2c(N2CCCCC2)c1[N+](=O)[O-]
[1]; at 0.235 µM
  max caspase activation: -1.97% (inactive)

## O=c1oc2ccccc2c(Cl)c1[N+](=O)[O-]
[1]; at 30 µM
  max caspase activation: -5.13% (inactive)

## CCSc1c([N+](=O)[O-])c(=O)oc2ccccc12
[1]; at 8 µM
  max caspase activation: 2.46% (inactive)

## CN1C(=O)C(C)(C)N(Cc2ccccc2)c2ccccc21
[1]; at 16 µM
  max caspase activation: -0.643% (inactive)

## Cn1c(=O)c([N+](=O)[O-])c(-n2cnc3ccccc32)c2ccccc21
[2]
  AC10: > 30 µM (inactive)

## Cc1ccc(Sc2cc(=O)n(C)c3ccccc23)cc1
[1]; at 30 µM
  max caspase activation: -5.85% (inactive)

## O=c1oc2ccccc2c(Nc2cc(Cl)cc(Cl)c2)c1[N+](=O)[O-]
[1]; at 0.12 µM
  max caspase activation: 2.71% (inactive)

## Cc1ccc(Sc2c([N+](=O)[O-])cnc3ccccc23)cc1
[2]
  AC10: 24.9 µM

## Cc1ccc(Sc2c([N+](=O)[O-])c(=O)oc3ccccc23)cc1
[1]; at 16 µM
  max caspase activation: -4.17% (inactive)

## O=[N+]([O-])c1cnc2ccccc2c1Sc1ccccc1
[2]
  AC10: > 30 µM (inactive)
